This is an account of results in ChEMBL document CHEMBL1131961, “Protein kinase C modulators bearing dicarba-CLOSO-dodecaborane as a hydrophobic pharmacophore” (Bioorg Med Chem Lett, 1999).

The test system of assay [1] is HL-60. Put plainly: Inhibition of HL-60 monocyte cell proliferation. The format is functional. As to conditions: Homo sapiens, read-out: ED50 (the source's name).
Assay [2] deals with Protein kinase C delta type (Homo sapiens, UniProt Q05655). Description: Displacement of [3H]-PDBu from human recombinant Protein kinase C delta.
Chain of Protein kinase C delta type (Q05655 whole entry): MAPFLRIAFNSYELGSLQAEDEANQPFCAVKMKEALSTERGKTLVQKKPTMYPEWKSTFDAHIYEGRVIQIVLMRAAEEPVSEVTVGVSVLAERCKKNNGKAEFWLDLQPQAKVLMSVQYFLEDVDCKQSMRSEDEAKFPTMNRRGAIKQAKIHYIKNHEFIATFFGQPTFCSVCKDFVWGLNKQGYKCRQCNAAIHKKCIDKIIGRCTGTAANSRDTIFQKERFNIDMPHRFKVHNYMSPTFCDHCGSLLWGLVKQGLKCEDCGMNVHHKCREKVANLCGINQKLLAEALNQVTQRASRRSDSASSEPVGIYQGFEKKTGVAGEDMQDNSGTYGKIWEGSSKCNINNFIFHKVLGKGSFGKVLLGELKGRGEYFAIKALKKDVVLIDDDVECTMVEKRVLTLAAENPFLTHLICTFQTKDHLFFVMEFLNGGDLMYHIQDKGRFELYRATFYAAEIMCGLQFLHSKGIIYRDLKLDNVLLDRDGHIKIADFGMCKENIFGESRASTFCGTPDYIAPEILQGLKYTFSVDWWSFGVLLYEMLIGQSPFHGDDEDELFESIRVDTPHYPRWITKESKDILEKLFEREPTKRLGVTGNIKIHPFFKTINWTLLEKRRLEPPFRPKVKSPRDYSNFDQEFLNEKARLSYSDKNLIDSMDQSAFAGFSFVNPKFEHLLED

As to `CCCCCCCCCCc1ccc2c(c1)N(C)[C@@H](C(C)C)C(=O)N[C@H](CO)C2`, in assay [1], the EC50 is 5 nM. In assay [2], the inhibitory constant (Ki) is 1.8 nM.
